Measurements: patent US20190062788A1, “LIPID NANOPARTICLE METHODS AND COMPOSITIONS FOR PRODUCING ENGINEERED ERYTHROID CELLS” (RUBIUS THERAPEUTICS, INC., priority 2017, published 2019)
No end group written: not given here. *: point of attachment. FITC = O=C1OC2(c3ccc(O)cc3Oc3cc(O)ccc32)c2ccc(NC(=S)*)cc21

Columns and labels:
[1] = system: erythroid cells; assay: Uptake of labelled transferrin receptor-binding peptide into erythroid cells, fluorescence microscopy; format: cell-based; details: added at day M2, about 1 mg/ml, 72 hours, 37 degrees
Procedure: Uptake of a transferrin-binding peptide was also tested. Wild-type CD34+ cells were differentiated as described herein. At day M2 of maturation/differentiation, FITC-LC-HAIYPRH (a fluorescently labelled peptide that binds the transferrin receptor) was added to a culture of about 0.5×10^6 cells at about 1 mg/ml. The labeled peptide was obtained from Anapsec. The cells were cultured in the presence of the labeled peptide for 72 hours at 37 degrees. Internalization of the FITC-LC-HAIYPRH labeled polypeptide by erythroid cells was confirmed by fluorescence microscopy.

[2] = system: erythroid cells undergoing maturation; assay: Uptake of Alexa488-labeled transferrin by erythroid cells during maturation; format: cell-based; details: 1 mg/ml in complete media, 0-24 hours, 37 or 4 degrees; days M1, M4, M5, M6
Procedure: In this example, transferrin receptor (CD71; also referred to herein as TRF) was evaluated for internalization into erythroid cells undergoing maturation. Briefly, wild-type CD34+ cells were differentiated as described herein. Samples of about 0.5×10^6 cells were taken on days M1, M4, M5, and M6 of maturation. […] The cells were incubated with the TRF-Alexa488 at a concentration of 1 mg/ml in complete media for 0-24 hours at 37 degrees or 4 degrees as indicated in FIG. 2.

Row | Substance | Internalization of labeled polypeptide by erythroid cells [1] | Transferrin internalization [2]
1 | FITC-LC-HAIYPRH: a fluorescently labelled peptide that binds the transferrin receptor, obtained from Anapsec ({FITC-LC}-HAIYPRH) | confirmed | –
2 | TFR-Alexa488: Alexa488-labeled transferrin obtained from Thermo Fisher Scientific (#T13342) | – | active throughout the maturation phase
